Source: PubChem BioAssay (NCI)
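These data come from cells grown in 96-well plates and exposed to compound for 48 hours at five concentrations. At the TGI there is no net growth.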

What was measured:
Assay in all cases: DTP human tumour cell line panel, 48 h
786-0 renal = tested on: 786-0 renal
HCT-116 colon = tested on: HCT-116 colon
SF-295 CNS = tested on: SF-295 CNS
K-562 leukemia = tested on: K-562 leukemia
TK-10 renal = tested on: TK-10 renal
SNB-19 CNS = tested on: SNB-19 CNS
T-47D breast = tested on: T-47D breast
PC-3 prostate = tested on: PC-3 prostate
RPMI-8226 leukemia = tested on: RPMI-8226 leukemia
SK-OV-3 ovarian = tested on: SK-OV-3 ovarian

SMILES: CC(C)(C)c1ccc(O)c(C(c2ccc([N+](=O)[O-])cc2)c2cc(C(C)(C)C)ccc2O)c1
- TGI (786-0 renal): 3.8 µM
- TGI (HCT-116 colon): 5.06 µM
- TGI (SF-295 CNS): 3.64 µM
- TGI (K-562 leukemia): 7.35 µM
- TGI (TK-10 renal): 7.39 µM
- TGI (SNB-19 CNS): 5.36 µM
- TGI (T-47D breast): 8.72 µM
- TGI (PC-3 prostate): 3.33 µM
- TGI (RPMI-8226 leukemia): 4.98 µM
- TGI (SK-OV-3 ovarian): 4.15 µM

SMILES: C=CCOC(=O)c1c(C)n([O-])c2cc(Cl)c(Cl)cc2[n+]1=O
- TGI (786-0 renal): 60.1 µM
- TGI (HCT-116 colon): 39 µM
- TGI (SF-295 CNS): 86.9 µM
- TGI (K-562 leukemia): > 100 µM
- TGI (TK-10 renal): 87.2 µM
- TGI (SNB-19 CNS): > 100 µM
- TGI (T-47D breast): 49.3 µM
- TGI (PC-3 prostate): > 100 µM
- TGI (RPMI-8226 leukemia): 33.9 µM
- TGI (SK-OV-3 ovarian): 59.8 µM

SMILES: CC(C)(C)c1cc(C(=O)C2Cc3ccccc3C(=O)O2)cc(C(C)(C)C)c1O (stereo not given)
- TGI (786-0 renal): 24.8 µM
- TGI (HCT-116 colon): 21.9 µM
- TGI (SF-295 CNS): 35.1 µM
- TGI (K-562 leukemia): > 100 µM
- TGI (TK-10 renal): 28.6 µM
- TGI (SNB-19 CNS): 24.7 µM
- TGI (T-47D breast): > 100 µM
- TGI (PC-3 prostate): 28.2 µM
- TGI (RPMI-8226 leukemia): 42.1 µM
- TGI (SK-OV-3 ovarian): 56.3 µM

SMILES: O=C1CCCCC/C1=C\c1cccc([N+](=O)[O-])c1
- TGI (786-0 renal): > 100 µM
- TGI (HCT-116 colon): 53 µM
- TGI (SF-295 CNS): 50.4 µM
- TGI (K-562 leukemia): > 100 µM
- TGI (TK-10 renal): 97.2 µM
- TGI (SNB-19 CNS): > 100 µM
- TGI (T-47D breast): > 100 µM
- TGI (PC-3 prostate): > 100 µM
- TGI (RPMI-8226 leukemia): 78.1 µM
- TGI (SK-OV-3 ovarian): > 100 µM

SMILES: CCOC(=O)C1(C#N)C2(C#N)C(N)=NC(ON=C(C)C)(ON=C(C)C)C12C#N (stereo not given)
- TGI (786-0 renal): > 100 µM
- TGI (HCT-116 colon): > 100 µM
- TGI (SF-295 CNS): > 100 µM
- TGI (K-562 leukemia): > 100 µM
- TGI (TK-10 renal): > 100 µM
- TGI (SNB-19 CNS): > 100 µM
- TGI (T-47D breast): > 100 µM
- TGI (PC-3 prostate): > 100 µM
- TGI (RPMI-8226 leukemia): > 100 µM
- TGI (SK-OV-3 ovarian): > 100 µM

SMILES: CCCCCCCCCC(O)CC(=O)c1c(O)cccc1O (stereo not given)
- TGI (786-0 renal): 50.4 µM
- TGI (HCT-116 colon): 56.7 µM
- TGI (SF-295 CNS): 39.1 µM
- TGI (K-562 leukemia): 49.5 µM
- TGI (TK-10 renal): 45.7 µM
- TGI (SNB-19 CNS): 73 µM
- TGI (T-47D breast): 71.5 µM
- TGI (PC-3 prostate): 36.4 µM
- TGI (RPMI-8226 leukemia): 45.2 µM
- TGI (SK-OV-3 ovarian): 41.3 µM

SMILES: COc1cc(NS(C)(=O)=O)ccc1NCc1cnc2ccc3[nH]cccc3c12
- TGI (786-0 renal): 54 µM
- TGI (HCT-116 colon): > 70 µM
- TGI (SF-295 CNS): 53.4 µM
- TGI (K-562 leukemia): 41 µM
- TGI (TK-10 renal): > 81.8 µM
- TGI (SNB-19 CNS): > 89.1 µM
- TGI (T-47D breast): 50.8 µM
- TGI (PC-3 prostate): 42.3 µM
- TGI (RPMI-8226 leukemia): 29.8 µM
- TGI (SK-OV-3 ovarian): 48 µM

SMILES: CCn1c(-c2ccc(OC)cc2)nc2c1C(=O)c1ccccc1C2=O
- TGI (786-0 renal): > 100 µM
- TGI (HCT-116 colon): > 100 µM
- TGI (SF-295 CNS): > 100 µM
- TGI (K-562 leukemia): > 100 µM
- TGI (TK-10 renal): > 100 µM
- TGI (SNB-19 CNS): > 100 µM
- TGI (T-47D breast): > 100 µM
- TGI (PC-3 prostate): > 100 µM
- TGI (RPMI-8226 leukemia): > 100 µM
- TGI (SK-OV-3 ovarian): > 100 µM

SMILES: O=C(N/N=C\c1cccs1)c1ccncc1
- TGI (786-0 renal): > 100 µM
- TGI (HCT-116 colon): > 100 µM
- TGI (SF-295 CNS): > 100 µM
- TGI (K-562 leukemia): > 100 µM
- TGI (TK-10 renal): > 100 µM
- TGI (SNB-19 CNS): > 100 µM
- TGI (T-47D breast): > 100 µM
- TGI (PC-3 prostate): > 100 µM
- TGI (RPMI-8226 leukemia): > 100 µM
- TGI (SK-OV-3 ovarian): > 100 µM

SMILES: COC1=CC(=O)c2c(cc(COP(N)(=O)N(CCCl)CCCl)n2C)C1=O (stereo not given)
- TGI (786-0 renal): 10.9 µM
- TGI (HCT-116 colon): 0.707 µM
- TGI (SF-295 CNS): 2.82 µM
- TGI (K-562 leukemia): 36.9 µM
- TGI (TK-10 renal): 5.61 µM
- TGI (SNB-19 CNS): 14.2 µM
- TGI (T-47D breast): 4.29 µM
- TGI (PC-3 prostate): 10.1 µM
- TGI (RPMI-8226 leukemia): 4.73 µM
- TGI (SK-OV-3 ovarian): 5.9 µM

SMILES: CNC(=O)c1cc2nc3ccccc3c(=O)n2c2ccccc12
- TGI (786-0 renal): > 10 µM
- TGI (HCT-116 colon): > 10 µM
- TGI (SF-295 CNS): > 10 µM
- TGI (K-562 leukemia): > 10 µM
- TGI (TK-10 renal): > 10 µM
- TGI (SNB-19 CNS): > 10 µM
- TGI (T-47D breast): > 10 µM
- TGI (PC-3 prostate): > 10 µM
- TGI (RPMI-8226 leukemia): > 10 µM
- TGI (SK-OV-3 ovarian): > 10 µM

SMILES: CC(=O)OC12CC(C(F)(F)F)(C(F)(F)F)OC1(OC(C)=O)CC(C(F)(F)F)(C(F)(F)F)O2 (stereo not given)
- TGI (786-0 renal): 12.4 µM
- TGI (HCT-116 colon): 29.7 µM
- TGI (SF-295 CNS): > 100 µM
- TGI (K-562 leukemia): > 100 µM
- TGI (TK-10 renal): > 100 µM
- TGI (SNB-19 CNS): > 100 µM
- TGI (T-47D breast): 8.56 µM
- TGI (PC-3 prostate): > 100 µM
- TGI (RPMI-8226 leukemia): 7.61 µM
- TGI (SK-OV-3 ovarian): 79.8 µM

SMILES: NC(=S)Nc1ccc2c(c1)oc1ccccc12
- TGI (786-0 renal): > 100 µM
- TGI (HCT-116 colon): > 100 µM
- TGI (SF-295 CNS): > 100 µM
- TGI (K-562 leukemia): > 100 µM
- TGI (TK-10 renal): > 100 µM
- TGI (SNB-19 CNS): > 100 µM
- TGI (T-47D breast): > 100 µM
- TGI (PC-3 prostate): > 100 µM
- TGI (RPMI-8226 leukemia): > 100 µM
- TGI (SK-OV-3 ovarian): > 100 µM

SMILES: Cc1ccc(S(=O)(=O)/N=C2/N(C)CCCS2(=O)=O)cc1
- TGI (786-0 renal): > 100 µM
- TGI (HCT-116 colon): > 100 µM
- TGI (SF-295 CNS): > 100 µM
- TGI (K-562 leukemia): > 100 µM
- TGI (TK-10 renal): > 100 µM
- TGI (SNB-19 CNS): > 100 µM
- TGI (T-47D breast): > 100 µM
- TGI (PC-3 prostate): > 100 µM
- TGI (RPMI-8226 leukemia): > 100 µM
- TGI (SK-OV-3 ovarian): > 100 µM
